Results published in patent US6677328B1, “Method for the prevention of colonic adenomas” (priority 1995, dated 2004).

Legend:
Format in all cases: in vivo, Male Fischer 344 rats
[1] = tested on: azoxymethane-induced colon neoplasms in Fischer 344 rats; experiment: Azoxymethane-induced colon tumors in rats on supplemented AIN-76 diet (Example 1); conditions: for Tumor bearing rats, total, number / Tumor bearing rats, benign (adenoma), number / Tumor bearing rats, benign (adenoma), {%} / Tumor bearing rats, malignant (cancers), number / Tumor bearing rats, malignant (cancers), {%} / Tumor bearing rats, total, {%}: azoxymethane 15 mg/kg s.c., sacrifice after 28 weeks
Method: (§1) The control group diet is not supplemented at all. After 2 weeks, half of the rats in each group receive azoxymethane (15 mg/kg) or azoxymethane vehicle subcutaneously once a week for two weeks. […] After 28 weeks, the rats are sacrificed, the colons harvested and examined for neoplasms. None of the rats injected with azoxymethane vehicle develop tumors. Since it is believed that malignancies develop from adenomas, the total tumor bearing rat values are particularly enlightening as this represents the number of growths that are still in the adenoma stage and the number of growths that have continued to progress to cancers. Ursodiol reduced the number of growths from control by 50%, with a 100% reduction in those that progressed to cancers and a 33% reduction in the number of tumors that still remained as adenomas.

[2] = tested on: azoxymethane-induced colon neoplasms in Fischer 344 rats; experiment: Azoxymethane rat model, incidence of microadenomas, adenomas and cancers (Example 2); design: Tumor bearing rats, benign (microadenoma) / Tumor bearing rats, benign (adenoma) / Tumor bearing rats, malignant (cancers) / Tumor bearing rats, total: unit not given here; conditions: for Tumor bearing rats, total / Tumor bearing rats, benign (adenoma) / Tumor bearing rats, benign (microadenoma) / Tumor bearing rats, malignant (cancers): azoxymethane model as Example 1
Method: as §1
The procedure of Example 1 was followed except that the number of rats involved are as stated in the table below and aberrant crypt frequency was examined upon sacrifice of the rats. The incidence of microadenomas, adenomas, and cancers in the tested populations was recorded and appears in the table below.

[3] = tested on: azoxymethane-induced colon neoplasms in Fischer 344 rats; experiment: Azoxymethane rat model, 7 diets, two study centers (Example 3)
Method: The control group diet is not supplemented at all. After 2 weeks, half of the rats in each group receive azoxymethane (15 mg/kg) or azoxymethane vehicle subcutaneously once a week for two weeks. […] After 28 weeks, the rats are sacrificed, the colons harvested and examined for neoplasms.

[4] = Study Center 2, standard diet + 0.2%
[5] = Study Center 2, standard diet + 0.4%
[6] = Study center 1, standard diet + 0.2%
[7] = Study center 1, standard diet + 0.4%
[8] = piroxicam diet, level not given
[9] = Study Center 2, standard diet + Piroxicam, level not given
[10] = Study center 1, standard diet + Piroxicam, level not given

SMILES	Tumor bearing rats, benign (adenoma), number ([1]; diet supplement 0.4%)	Tumor bearing rats, benign (adenoma), {%} ([1]; diet supplement 0.4%)	Tumor bearing rats, malignant (cancers), number ([1]; diet supplement 0.4%)	Tumor bearing rats, malignant (cancers), {%} ([1]; diet supplement 0.4%)	Tumor bearing rats, total, {%} ([1]; diet supplement 0.4%)	Tumor bearing rats, benign (adenoma) ([2]; diet supplement 0.4%)	Tumor bearing rats, benign (microadenoma) ([2]; diet supplement 0.4%)	Tumor bearing rats, malignant (cancers) ([2]; diet supplement 0.4%)	Tumor bearing rats, benign [3, 4]	Tumor bearing rats, malignant [3, 4]	Tumor bearing rats, total [3, 4]	Tumor bearing rats, benign [3, 5]	Tumor bearing rats, malignant [3, 5]	Tumor bearing rats, total [3, 5]	Tumor bearing rats, benign [3, 6]	Tumor bearing rats, malignant [3, 6]	Tumor bearing rats, total [3, 6]	Tumor bearing rats, benign [3, 7]	Tumor bearing rats, malignant [3, 7]	Tumor bearing rats, total [3, 7]	further results
C[C@H](CCC(=O)O)[C@H]1CC[C@H]2[C@@H]3[C@H](O)C[C@@H]4C[C@H](O)CC[C@]4(C)[C@H]3C[C@H](O)[C@]12C [Cholic Acid, Cholic acid]	20	43%	14	30%	73%	71	57	38	6	8	14	8	9	17	12	4	16	12	5	17	Effect on number of adenomas present ([1]; 0.4% in diet, in words): increased the number of adenomas which were present; Effect on number of malignancies over control ([1]; 0.4% in diet, in words): increased the number of malignancies over control; Tumor bearing rats, total, number ([1]; control, diet not supplemented): 34; Tumor bearing rats, total [2]: 166
CN1C(C(=O)Nc2ccccn2)=C(O)c2ccccc2S1(=O)=O [Piroxicam]																					Effect on adenomas and malignancies ([1]; 75 ppm in diet, in words, compared with ursodiol): reduced both adenomas and malignancies, but neither was reduced as dramatically as seen with ursodiol administration; Tumor bearing rats, benign (adenoma), number ([1]; diet supplement 75 ppm): 16; Tumor bearing rats, benign (adenoma), {%} ([1]; diet supplement 75 ppm): 29%; Tumor bearing rats, malignant (cancers), number ([1]; diet supplement 75 ppm): 3; Tumor bearing rats, malignant (cancers), {%} ([1]; diet supplement 75 ppm): 5%; Tumor bearing rats, total, number ([1]; diet supplement 75 ppm): 19; Tumor bearing rats, total, {%} ([1]; diet supplement 75 ppm): 34%; Tumor bearing rats, benign (adenoma) [2, 8]: 42; Tumor bearing rats, benign (microadenoma) [2, 8]: 25; Tumor bearing rats, malignant (cancers) [2, 8]: 8; Tumor bearing rats, total [2, 8]: 75; Tumor bearing rats, benign [3, 9]: 8; Tumor bearing rats, malignant [3, 9]: 2; Tumor bearing rats, total [3, 9]: 10; Tumor bearing rats, benign [3, 10]: 8; Tumor bearing rats, malignant [3, 10]: 1; Tumor bearing rats, total [3, 10]: 9
C[C@H](CCC(=O)O)[C@H]1CC[C@H]2[C@@H]3[C@@H](O)C[C@@H]4C[C@H](O)CC[C@]4(C)[C@H]3CC[C@]12C [Ursodiol, 3-α-7-β-dihydroxy-5-β-cholan-24-oic acid]	10	22%	0 {0}	0 {0} %	22%	27	23	0	6	4	10	6	0	6	8	5	13	4	0	4	Reduction of the number of growths from control ([1]; 0.4% in diet, total tumor bearing rats vs control): 50%; Reduction in growths that progressed to cancers ([1]; 0.4% in diet, vs control): 100%; Reduction in the number of tumors that still remained as adenomas ([1]; 0.4% in diet, vs control): 33%; Tumor bearing rats, total, number ([1]; diet supplement 0.4%): 10; Effect on incidence of malignancies and on number and size of non-cancerous or pre-cancerous growths ([2]; 0.4% in diet, in words): not only reduces the incidence of malignancies, but also reduces both the number and size of the non-cancerous or pre-cancerous growths; Tumor bearing rats, total ([2]; diet supplement 0.4%): 50; Effect in preventing the development of tumors at lower concentration ([3]; 0.2% in diet compared with 0.4%, in words): does not seem to be as strong as lower concentrations of ursodiol, i.e., 0.2%
